PMC3776131 (Bioorganic & medicinal chemistry letters, 2013)
Where two headings read alike, the source gives them in different places. Where a SMILES comes first, the peptide text is derived from it. [ ]: non-standard residue; d: D form. Dmt = Cc1cc(O)cc(C)c1C[C@H](N)C(=O)O; Tic = O=C(O)[C@@H]1Cc2ccccc2CN1

Tests used:
[1] = molecular target: T1, μ opioid receptors (Rattus norvegicus, UniProt P33535); assay: μ opioid receptor binding, displacement of [3H]DAMGO from rat brain membranes; details: relative to 4a
[2] = molecular target: T2, δ receptor (Mus musculus, UniProt P32300); assay: mouse vas deferens
[3] = tested on: μ and κ receptor; assay: guinea pig ileum
[4] = molecular target: T2, δ receptor; details: cited from earlier work
[5] = molecular target: μ and κ receptor; details: cited from earlier work
[6] = given i.c.v.; cited from earlier work
[7] = cited from earlier work
[8] = molecular target: T1, μ opioid receptors; details: read-out: Ki^μ; [3H]DAMGO, rat brain membranes; cited from earlier work
[9] = molecular target: κ opioid receptor (Cavia porcellus, UniProt P41144); details: read-out: Ki^κ; [3H]U69,593, guinea pig brain membranes; cited from earlier work
κ opioid receptor, sequence (P41144 whole entry): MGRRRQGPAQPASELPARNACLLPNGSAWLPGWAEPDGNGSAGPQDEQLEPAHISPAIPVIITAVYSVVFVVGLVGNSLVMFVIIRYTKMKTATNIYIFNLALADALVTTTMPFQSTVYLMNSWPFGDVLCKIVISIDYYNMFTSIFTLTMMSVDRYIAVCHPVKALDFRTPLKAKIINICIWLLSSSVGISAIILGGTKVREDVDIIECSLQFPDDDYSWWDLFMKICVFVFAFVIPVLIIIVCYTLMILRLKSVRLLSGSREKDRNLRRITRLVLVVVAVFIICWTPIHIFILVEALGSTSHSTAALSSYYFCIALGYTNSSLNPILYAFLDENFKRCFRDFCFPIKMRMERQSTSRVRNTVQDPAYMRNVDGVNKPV

T2 sequence (P32300 whole entry): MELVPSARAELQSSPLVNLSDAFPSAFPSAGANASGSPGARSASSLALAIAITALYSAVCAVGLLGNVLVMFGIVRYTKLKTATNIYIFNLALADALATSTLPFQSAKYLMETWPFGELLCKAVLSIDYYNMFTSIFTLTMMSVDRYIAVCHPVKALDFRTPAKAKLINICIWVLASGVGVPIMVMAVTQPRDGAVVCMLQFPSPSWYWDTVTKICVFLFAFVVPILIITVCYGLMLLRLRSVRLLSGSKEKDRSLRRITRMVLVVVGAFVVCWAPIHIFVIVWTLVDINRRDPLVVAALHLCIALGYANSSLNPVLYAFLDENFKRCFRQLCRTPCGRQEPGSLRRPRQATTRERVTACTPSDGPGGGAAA
T1 sequence (P33535 whole entry): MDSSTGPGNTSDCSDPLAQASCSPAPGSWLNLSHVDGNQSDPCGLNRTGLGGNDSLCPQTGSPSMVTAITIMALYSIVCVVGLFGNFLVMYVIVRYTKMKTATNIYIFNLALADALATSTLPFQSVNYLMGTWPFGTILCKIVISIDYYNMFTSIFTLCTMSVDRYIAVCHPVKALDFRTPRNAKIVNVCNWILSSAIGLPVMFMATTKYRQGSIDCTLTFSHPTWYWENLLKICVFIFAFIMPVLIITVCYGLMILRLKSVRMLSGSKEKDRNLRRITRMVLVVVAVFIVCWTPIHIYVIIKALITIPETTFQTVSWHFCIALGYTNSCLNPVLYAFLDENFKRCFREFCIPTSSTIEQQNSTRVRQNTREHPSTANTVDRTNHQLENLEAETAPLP

Row | Compound | MVD Ke (δ antagonist activity) [4] [nM] | type of activity in the MVD assay [4] | GPI IC50 (agonist potency) [5] | also measured
1 | Cc1cc(O)cc(C)c1C[C@H](N)C(=O)N1Cc2ccccc2C[C@H]1C(=O)N[C@@H](CCCCN)C(=O)N[C@@H](Cc1ccccc1)C(N)=O [Compound 6a, H-Dmt-Tic-Lys-Phe-NH2] (HELM PEPTIDE1{[Cc1cc(O)cc(C)c1C[C@H](N)C(=O)[*:2]].[Tic].K.F.[am]}$$$$V2.0) |  |  |  | fold lower μ receptor affinity than 4a [1]: 16 fold; Kb [2]: 2.18 ± 0.3 nM; type of activity in the MVD assay [2]: δ antagonist; type of activity in the GPI assay [3]: μ agonist
2 | H-Dmt-Ticψ[CH2NH]Phe-Phe-NH2 [Compound 5a] | 0.537 ± 0.026 |  |  | IC50 ([5]; read-out: GPI IC50 (agonist potency)): 7.71 ± 0.31 nM; analgesic effect in the rat tail flick test [6]: potent analgesic effect; physical dependence upon chronic administration [7]: no physical dependence; analgesic tolerance upon chronic administration ([7]; compared with morphine): less analgesic tolerance than morphine
3 | H-Tyr-Ticψ[CH2NH]Phe-Phe-OH [Compound 3a] |  | potent δ antagonists | inactive | 
4 | H-Y[Tic]FF-OH [Compound 1a] |  | potent δ antagonists | inactive | 
5 | H-[Dmt]-[Tic]-OH [Compound 8a] |  |  | Inactive | Ki [8]: 1360 ± 160 nM; Ki [9]: > 1000 nM
6 | H-[Dmt][Tic]FF-NH2 [Compound 4a] | 0.209 ± 0.037 |  |  | 
7 | H-[Dmt][Tic]FF-OH [Compound 2a] | 0.196 ± 0.008 | potent δ antagonists | inactive | 
